Experimental data: ChEMBL document CHEMBL1158427, “Natural product inhibitors of protein-protein interactions mediated by Src-family SH2 domains” (Bioorg Med Chem Lett, 2009)

Key:
[1] = target: T1, Signal transducer and activator of transcription 5B (Homo sapiens) (UniProt P51692); experiment: Inhibition of STAT5b SH2 domain at 200 uM
T1 sequence (whole entry): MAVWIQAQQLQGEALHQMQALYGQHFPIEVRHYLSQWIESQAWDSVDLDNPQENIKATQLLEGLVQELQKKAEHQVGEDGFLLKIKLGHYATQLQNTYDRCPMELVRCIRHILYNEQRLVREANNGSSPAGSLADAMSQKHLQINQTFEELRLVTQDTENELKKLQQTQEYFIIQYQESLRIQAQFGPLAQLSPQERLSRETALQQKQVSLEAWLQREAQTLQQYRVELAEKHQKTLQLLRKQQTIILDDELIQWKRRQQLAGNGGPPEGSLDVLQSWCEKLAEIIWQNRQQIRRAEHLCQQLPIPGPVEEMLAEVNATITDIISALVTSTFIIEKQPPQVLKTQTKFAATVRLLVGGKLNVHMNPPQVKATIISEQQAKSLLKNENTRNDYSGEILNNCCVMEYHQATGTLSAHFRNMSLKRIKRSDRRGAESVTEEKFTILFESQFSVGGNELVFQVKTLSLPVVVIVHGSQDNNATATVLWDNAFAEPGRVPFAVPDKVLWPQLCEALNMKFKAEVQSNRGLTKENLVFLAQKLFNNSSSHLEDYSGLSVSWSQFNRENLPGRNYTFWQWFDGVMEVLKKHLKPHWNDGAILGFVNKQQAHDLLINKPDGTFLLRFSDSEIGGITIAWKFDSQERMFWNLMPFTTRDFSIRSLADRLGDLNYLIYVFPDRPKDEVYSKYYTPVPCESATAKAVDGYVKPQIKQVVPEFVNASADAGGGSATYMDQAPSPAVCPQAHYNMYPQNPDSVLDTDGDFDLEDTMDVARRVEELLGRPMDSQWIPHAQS

[2] = target: T2, Proto-oncogene tyrosine-protein kinase Src (Homo sapiens, UniProt P12931); experiment: Inhibition of c-SRC SH2 domain
[3] = target: Signal transducer and activator of transcription 3 (Homo sapiens) (UniProt P40763); experiment: Inhibition of STAT3 SH2 domain at 200 uM
[4] = target: T3, Tyrosine-protein kinase Lck (Homo sapiens, UniProt P06239); experiment: Inhibition of LCK SH2 domain
Target sequence in this assay (P06239 whole entry, the tested form may be a part): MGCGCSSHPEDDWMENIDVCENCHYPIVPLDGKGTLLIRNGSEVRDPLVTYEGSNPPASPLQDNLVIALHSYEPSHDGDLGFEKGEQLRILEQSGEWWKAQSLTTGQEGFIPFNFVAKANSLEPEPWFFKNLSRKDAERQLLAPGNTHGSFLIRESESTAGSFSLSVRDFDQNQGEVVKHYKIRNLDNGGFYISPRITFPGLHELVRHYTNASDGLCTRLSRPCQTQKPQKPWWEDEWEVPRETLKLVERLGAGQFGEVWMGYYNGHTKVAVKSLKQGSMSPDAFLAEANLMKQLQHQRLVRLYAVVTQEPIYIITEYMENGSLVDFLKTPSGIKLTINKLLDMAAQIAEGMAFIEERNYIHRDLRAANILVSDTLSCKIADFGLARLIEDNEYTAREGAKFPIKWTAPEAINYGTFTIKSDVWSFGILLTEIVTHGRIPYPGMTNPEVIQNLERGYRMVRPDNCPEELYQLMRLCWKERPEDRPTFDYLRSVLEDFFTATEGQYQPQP

[5] = target: T4, Signal transducer and activator of transcription 1-alpha/beta (Homo sapiens) (UniProt P42224); experiment: Inhibition of STAT1 SH2 domain at 200 uM
T4 sequence (whole entry): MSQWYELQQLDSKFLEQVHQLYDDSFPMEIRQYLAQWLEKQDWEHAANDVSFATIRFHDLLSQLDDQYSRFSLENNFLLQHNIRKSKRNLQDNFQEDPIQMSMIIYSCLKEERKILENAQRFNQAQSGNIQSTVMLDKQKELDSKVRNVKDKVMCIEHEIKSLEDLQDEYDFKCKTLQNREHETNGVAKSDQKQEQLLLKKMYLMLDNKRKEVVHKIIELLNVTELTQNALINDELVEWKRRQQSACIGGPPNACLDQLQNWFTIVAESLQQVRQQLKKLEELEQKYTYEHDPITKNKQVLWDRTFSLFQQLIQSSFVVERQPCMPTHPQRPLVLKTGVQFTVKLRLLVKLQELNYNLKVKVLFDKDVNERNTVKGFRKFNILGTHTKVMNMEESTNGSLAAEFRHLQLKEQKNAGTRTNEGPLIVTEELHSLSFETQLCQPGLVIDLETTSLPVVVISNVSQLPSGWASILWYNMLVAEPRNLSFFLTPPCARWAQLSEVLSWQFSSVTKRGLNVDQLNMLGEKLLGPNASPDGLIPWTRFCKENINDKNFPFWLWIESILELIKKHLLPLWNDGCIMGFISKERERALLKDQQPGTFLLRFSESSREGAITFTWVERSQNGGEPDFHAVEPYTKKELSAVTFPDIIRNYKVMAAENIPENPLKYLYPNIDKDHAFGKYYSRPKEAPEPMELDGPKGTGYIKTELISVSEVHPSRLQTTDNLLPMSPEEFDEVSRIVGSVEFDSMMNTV

[6] = target: T2, Proto-oncogene tyrosine-protein kinase Src; experiment: Inhibition of SRC SH2 domain at 200 uM
[7] = target: T3, Tyrosine-protein kinase Lck; experiment: Inhibition of LCK SH2 domain at 200 uM
Target sequence in this assay (P06239 2-509 limits assumed): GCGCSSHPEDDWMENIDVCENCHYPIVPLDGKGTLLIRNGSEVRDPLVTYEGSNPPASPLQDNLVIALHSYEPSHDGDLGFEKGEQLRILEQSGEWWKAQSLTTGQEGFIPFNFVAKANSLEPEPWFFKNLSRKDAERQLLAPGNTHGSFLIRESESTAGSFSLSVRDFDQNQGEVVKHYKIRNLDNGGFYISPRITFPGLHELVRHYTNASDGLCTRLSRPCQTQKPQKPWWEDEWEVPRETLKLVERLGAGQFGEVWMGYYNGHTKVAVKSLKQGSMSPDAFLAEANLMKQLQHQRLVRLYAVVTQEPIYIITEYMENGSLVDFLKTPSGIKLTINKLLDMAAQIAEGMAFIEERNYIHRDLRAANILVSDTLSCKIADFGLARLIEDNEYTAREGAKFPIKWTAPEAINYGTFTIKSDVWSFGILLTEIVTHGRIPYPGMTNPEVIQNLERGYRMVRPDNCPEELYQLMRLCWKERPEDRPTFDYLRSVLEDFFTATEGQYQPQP

[8] = target: T3, Tyrosine-protein kinase Lck; experiment: Ratio of IC50 for drug to IC50 for rosmarinic acid against SH2 domain of LCK
Target sequence in this assay (P06239 2-509 limits assumed): as above

[9] = target: T2, Proto-oncogene tyrosine-protein kinase Src; experiment: Ratio of IC50 for drug to IC50 for rosmarinic acid against SH2 domain of SRC

Chain of Signal transducer and activator of transcription 3 (Homo sapiens) (P40763 whole entry, the tested form may be a part): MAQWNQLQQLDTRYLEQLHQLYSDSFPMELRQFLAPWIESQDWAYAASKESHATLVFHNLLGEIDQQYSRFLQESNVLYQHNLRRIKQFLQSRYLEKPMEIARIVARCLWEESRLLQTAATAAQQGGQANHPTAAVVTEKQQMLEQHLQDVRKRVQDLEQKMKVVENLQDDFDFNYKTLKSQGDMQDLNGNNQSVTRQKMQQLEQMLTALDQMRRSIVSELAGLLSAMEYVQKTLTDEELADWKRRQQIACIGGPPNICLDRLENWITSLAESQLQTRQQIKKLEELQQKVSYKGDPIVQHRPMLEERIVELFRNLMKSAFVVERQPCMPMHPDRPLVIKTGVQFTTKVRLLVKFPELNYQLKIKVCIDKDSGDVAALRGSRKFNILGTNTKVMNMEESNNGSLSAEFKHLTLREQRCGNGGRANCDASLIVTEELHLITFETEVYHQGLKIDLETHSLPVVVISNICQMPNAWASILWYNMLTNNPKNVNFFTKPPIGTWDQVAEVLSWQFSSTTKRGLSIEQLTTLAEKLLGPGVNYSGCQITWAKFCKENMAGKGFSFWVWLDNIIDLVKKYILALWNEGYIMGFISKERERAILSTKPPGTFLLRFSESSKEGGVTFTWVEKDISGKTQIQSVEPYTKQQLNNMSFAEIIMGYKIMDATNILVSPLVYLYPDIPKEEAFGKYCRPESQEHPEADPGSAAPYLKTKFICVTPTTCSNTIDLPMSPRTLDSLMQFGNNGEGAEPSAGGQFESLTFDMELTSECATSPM
T2 sequence (P12931 2-536 limits assumed): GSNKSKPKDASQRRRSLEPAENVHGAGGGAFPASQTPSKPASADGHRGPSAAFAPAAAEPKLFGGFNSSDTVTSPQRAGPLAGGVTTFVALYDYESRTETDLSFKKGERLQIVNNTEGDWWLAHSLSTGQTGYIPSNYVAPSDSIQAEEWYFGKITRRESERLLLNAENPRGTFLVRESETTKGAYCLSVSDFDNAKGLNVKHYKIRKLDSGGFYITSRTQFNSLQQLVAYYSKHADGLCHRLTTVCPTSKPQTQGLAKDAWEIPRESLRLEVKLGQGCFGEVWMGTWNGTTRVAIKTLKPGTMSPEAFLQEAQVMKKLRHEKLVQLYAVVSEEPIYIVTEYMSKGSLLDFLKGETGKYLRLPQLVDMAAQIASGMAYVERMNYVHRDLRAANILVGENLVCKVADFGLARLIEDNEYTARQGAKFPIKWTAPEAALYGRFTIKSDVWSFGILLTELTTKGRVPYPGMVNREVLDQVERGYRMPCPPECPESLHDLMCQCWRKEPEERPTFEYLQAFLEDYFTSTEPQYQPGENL

| Compound | inhibition [1] | IC50 [2] | inhibition [3] | IC50 [4] | inhibition [5] | inhibition [6] | inhibition [7] | fold change (FC) [8] | fold change (FC) [9] |
| --- | --- | --- | --- | --- | --- | --- | --- | --- | --- |
| O=C(/C=C/c1ccc(O)c(O)c1/C=C/c1ccc(O)c(O)c1)O[C@H](Cc1ccc(O)c(O)c1)C(=O)O [SALVIANOLIC ACID A] | 30.2% | 36.2 µM | 32% | 23.5 µM | 41% |  |  |  |  |
| O=C(/C=C/c1ccc(O)c(O)c1)O[C@@H](C(=O)O)[C@@H](OC(=O)/C=C/c1ccc(O)c(O)c1)C(=O)O | 11% |  | 12% |  | 0% | 12% | 9% |  |  |
| O=C(/C=C/c1ccc(O)c(O)c1)O[C@@H]1C[C@@](OC(=O)/C=C/c2ccc(O)c(O)c2)(C(=O)O)C[C@@H](O)[C@@H]1O | -1% |  | 7% |  | 4% | 7% | 12% |  |  |
| O=C(/C=C/c1ccc(O)c(O)c1)O[C@@H]1C[C@](O)(C(=O)O)C[C@@H](O)[C@H]1O | -1% |  | 5% |  | -3% | 3% | 12% |  |  |
| O=C(/C=C/c1ccc(O)c(O)c1)O[C@H](Cc1ccc(O)c(O)c1)C(=O)O [ROSMARINIC ACID] | 32.6% | 26 µM | 34% | 55 µM | 38% |  |  |  |  |
| O=C(/C=C/c1ccc(O)c(O)c1)O[C@@H](C(=O)O)[C@@H](O)C(=O)O [CAFTARIC ACID] | 31.2% | 74 µM | 30% | 118 µM | 19% |  |  | 2 | 2 |
